This note sets out measurements from patent US20260131015A1, “NEODEGRADER CONJUGATES” (priority 2022, published 2026).

Structures are written as SMILES.

Series [1] relates to NCI-H526 human SCLC cell line. In words: In Vitro Cytotoxicity Assay I (WST-8 cell viability). The format is cell-based. The note with it: NCI-H526, 120 hours, WST-8, Table 3. On the procedure:
(§1) The cell viability was determined by colorimetric WST-8 assay (Dojindo Molecular Technologies, Inc.). The OD450 value was read using the SpectraMax M5 plate reader. The values were normalized for each cell line, and IC50 values were calculated using the Prism software.

Series [2] has as its system IMR32 human neuroblastoma (NB) cell line. Described as above. The format is cell-based. The conditions noted are these: IMR32, 120 hours, WST-8, Table 3. On the procedure: as §1
The test system of series [3] is NCI-H526 SCLC cell line. Briefly: In Vitro Cytotoxicity Assay II (WST-8 cell viability). Format: cell-based, human. The note with it: NCI-H526, 120 hours, WST-8, Table 4. How it is done: (§2) Cell lines were harvested and plated into 96-well plates. […] The cell viability was determined by colorimetric WST-8 assay (Dojindo Molecular Technologies, Inc.). The OD450 value was read using the SpectraMax M5 plate reader. The values were normalized for each cell line, and IC50s were calculated using the Prism software.
On the technique in general: Tetrazolium assays rely on reduction of a dye to a coloured formazan, in cell work by metabolically active cells.

The subject of series [4] is NCI-H1048 SCLC cell line. Described as above. The conditions noted are these: NCI-H1048, 120 hours, WST-8, Table 4. The format is cell-based, human. On the procedure: as §2
The test system of series [5] is NCI-H82 SCLC cell line. The series is described as above. The format is cell-based. The note with it: NCI-H82, 120 hours, WST-8, Table 4. On the procedure:
as §2

The subject of series [6] is NCI-H510A SCLC cell line. The description is as above. The format is cell-based. The conditions noted are these: 120 hours, WST-8, Table 4. How it is done: as §2
In series [7] the test system is NCI-H146 SCLC cell line. The series is described as above. Format: cell-based. The note with it: NCI-H146, 120 hours, WST-8, Table 4. How it is done:
as §2

The test system of series [8] is NCI-H526 human SCLC cell line. In words: In Vitro Cytotoxicity Assay III (WST-8 cell viability). The format is cell-based. The note with it: NCI-H526, 120 hours, WST-8, Table 5. On the procedure:
(§3) Cell lines were harvested and plated into 96-well plates. […] The cell viability was determined by colorimetric WST-8 assay (Dojindo Molecular Technologies, Inc.). The OD450 value was read using the SpectraMax M5 plate reader. The values were normalized for each cell line, and IC50 values were calculated using the Prism software.

For series [9], the system named is IMR32 human neuroblastoma (NB) cell line. The description is as above. The note with it: IMR32, 120 hours, WST-8, Table 5. Format: cell-based. How it is done:
as §3

A word on the IC50: it is the concentration that gives 50% inhibition. Low readings indicate greater potency in that assay, high ones weaker potency in that assay. Take `Cc1ccc(NC(=O)NCc2ccc3c(c2)CN(C2CCC(=O)NC2=O)C3=O)cc1Cl` (stereo not drawn) [CC-885, reference compound]: the IC50 in series [1] turned out to be 118 pM; in series [2], 145 pM; in series [3] it was 177 pM; in [4], 40.9 pM; in series [5], 603 pM; in series [6], 230 pM. Further, the IC50 in series [7] stood at 527 pM; in series [8] it was 128 pM; in series [9], 99.4 pM.
